# Values of other authors as cited in US20260120816A1, “PREDICTION METHOD FOR PROTOPORPHYRINOGEN OXIDASE (PPO) INHIBITOR” (Pan Advanced Business Research, LLC, priority 2024, published 2026).
# Conditions: control compound, Non Patent Literature 8
structure (smiles),measurement,value
"CC(=O)c1c(C)nn(C)c1O [compound B, 1-(5-hydroxy-1,3-dimethyl-1H-pyrazol-4-yl)ethanone]",herbicidal activity,no herbicidal activity at all
